The target in series [1] is T1, Short transient receptor potential channel 5 (Homo sapiens, UniProt Q9UL62).
T1 sequence (Q9UL62 whole entry): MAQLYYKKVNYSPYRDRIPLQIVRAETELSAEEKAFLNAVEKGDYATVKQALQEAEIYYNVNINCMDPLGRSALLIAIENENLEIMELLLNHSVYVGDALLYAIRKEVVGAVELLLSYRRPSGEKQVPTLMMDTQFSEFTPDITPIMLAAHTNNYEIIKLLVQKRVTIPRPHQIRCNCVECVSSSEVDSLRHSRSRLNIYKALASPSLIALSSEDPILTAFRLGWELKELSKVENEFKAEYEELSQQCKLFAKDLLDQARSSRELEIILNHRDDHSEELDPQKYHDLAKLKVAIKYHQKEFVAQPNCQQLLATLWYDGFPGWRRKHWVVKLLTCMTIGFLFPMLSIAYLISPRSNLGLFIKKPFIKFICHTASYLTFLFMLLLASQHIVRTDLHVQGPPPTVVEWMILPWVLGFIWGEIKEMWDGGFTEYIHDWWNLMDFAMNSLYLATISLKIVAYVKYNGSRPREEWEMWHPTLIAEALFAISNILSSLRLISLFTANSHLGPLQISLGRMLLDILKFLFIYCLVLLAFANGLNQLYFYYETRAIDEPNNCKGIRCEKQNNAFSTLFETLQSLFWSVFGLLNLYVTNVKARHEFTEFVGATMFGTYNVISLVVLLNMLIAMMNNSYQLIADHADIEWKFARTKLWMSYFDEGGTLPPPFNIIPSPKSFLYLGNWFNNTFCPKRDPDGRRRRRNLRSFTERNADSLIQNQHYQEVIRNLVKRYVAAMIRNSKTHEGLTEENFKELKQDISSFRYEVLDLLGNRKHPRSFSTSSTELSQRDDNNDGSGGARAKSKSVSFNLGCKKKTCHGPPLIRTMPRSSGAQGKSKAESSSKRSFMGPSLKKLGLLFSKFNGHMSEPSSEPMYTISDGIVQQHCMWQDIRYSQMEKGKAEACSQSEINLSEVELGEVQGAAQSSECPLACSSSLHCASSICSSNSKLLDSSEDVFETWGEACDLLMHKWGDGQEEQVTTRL
Kind of series: Inhibition of TRPC5 channel (unknown origin) expressed in HEK293 cells assessed as inhibition of EA-evoked Ca2+ entry by measuring reduction in intracellular Ca2+ level by Fluo-4 dye based FLIPR assay. It counts as cell-based.

A further series has as its system MPC-5. Briefly: Reno-protectant activity against protamine sulfate-induced podocytes injury in mouse MPC5 cells assessed as reduction in PS-induced podocytes rearrangement and rupture of stress fibers at 0.1 to 3 uM pretreated for 30 mins followed by stimulation with PS for 100 mins. Format: functional, cell-based. Conditions: dose 0.1-3 µM, time 130.0 min, DDE = dose-dependent effect.

The next series deals with Hepatocyte. Kind of series: Cytotoxicity against primary mouse hepatocytes assessed as reduction in cell viability at 1 to 10 uM by MTT assay. It counts as toxicity, cell-based. The conditions noted are these: dose 1-10 µM.
The target of series [2] is T1, Short transient receptor potential channel 5. Briefly: Inhibition of human TRPC5 channel expressed in HEK293 cells assessed as inhibition of EA-evoked channel current measured at +80 mV by whole-cell voltage clamp assay. Format: cell-based.
Series [3] can be described thus: Cytotoxicity against mouse MPC5 cells assessed as reduction in cell viability at 1 to 10 uM by MTT assay. Format: toxicity, cell-based. Conditions: mpc-5, 10 µM, dose 1-10 µM. In general terms: Tetrazolium assays rely on reduction of a dye to a coloured formazan, in cell work by metabolically active cells.
Series [4] deals with T2, Short transient receptor potential channel 4 (Homo sapiens) (UniProt Q9UBN4).
T2 sequence (whole entry): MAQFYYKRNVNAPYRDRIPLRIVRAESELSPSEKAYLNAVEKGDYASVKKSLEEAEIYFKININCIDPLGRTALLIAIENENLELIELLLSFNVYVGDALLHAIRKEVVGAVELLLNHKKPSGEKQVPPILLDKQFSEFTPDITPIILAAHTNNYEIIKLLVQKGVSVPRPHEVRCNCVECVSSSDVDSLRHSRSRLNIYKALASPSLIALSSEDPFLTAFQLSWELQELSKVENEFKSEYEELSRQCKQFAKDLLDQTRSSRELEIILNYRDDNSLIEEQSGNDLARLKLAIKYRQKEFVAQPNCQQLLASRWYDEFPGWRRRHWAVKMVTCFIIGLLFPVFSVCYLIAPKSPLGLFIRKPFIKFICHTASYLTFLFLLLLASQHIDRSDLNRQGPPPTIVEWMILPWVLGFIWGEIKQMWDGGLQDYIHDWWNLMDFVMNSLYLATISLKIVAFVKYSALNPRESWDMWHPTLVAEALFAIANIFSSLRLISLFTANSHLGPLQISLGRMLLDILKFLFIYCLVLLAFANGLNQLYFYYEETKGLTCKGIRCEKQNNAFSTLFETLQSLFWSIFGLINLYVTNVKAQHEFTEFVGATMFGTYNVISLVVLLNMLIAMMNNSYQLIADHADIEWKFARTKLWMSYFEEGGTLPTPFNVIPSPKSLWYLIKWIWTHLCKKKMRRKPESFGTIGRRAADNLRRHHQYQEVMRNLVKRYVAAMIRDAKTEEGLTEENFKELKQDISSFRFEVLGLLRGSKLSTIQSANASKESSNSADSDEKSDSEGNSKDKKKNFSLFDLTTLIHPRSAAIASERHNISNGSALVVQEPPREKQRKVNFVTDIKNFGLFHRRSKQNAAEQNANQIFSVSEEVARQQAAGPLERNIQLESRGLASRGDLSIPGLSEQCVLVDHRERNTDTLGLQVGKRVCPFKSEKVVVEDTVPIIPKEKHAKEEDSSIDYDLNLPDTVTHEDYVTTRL
Briefly: (§1) Inhibition of TRPC4 channel (unknown origin) expressed in HEK293 cells assessed as inhibition of EA-evoked Ca2+ entry by measuring reduction in intracellular Ca2+ level by Fluo-4 dye based FLIPR assay. Format: cell-based. The conditions noted are these: DDE = dose-dependent effect.

Series [5] has as its target T3, Short transient receptor potential channel 4 (Homo sapiens, UniProt Q9UBN4).
T3 sequence (Q9UBN4 whole entry): T2 sequence (whole entry)
The series is described as §1. It counts as cell-based.

The target of series [6] is T4, Short transient receptor potential channel 3 (Homo sapiens) (UniProt Q13507).
T4 sequence (whole entry): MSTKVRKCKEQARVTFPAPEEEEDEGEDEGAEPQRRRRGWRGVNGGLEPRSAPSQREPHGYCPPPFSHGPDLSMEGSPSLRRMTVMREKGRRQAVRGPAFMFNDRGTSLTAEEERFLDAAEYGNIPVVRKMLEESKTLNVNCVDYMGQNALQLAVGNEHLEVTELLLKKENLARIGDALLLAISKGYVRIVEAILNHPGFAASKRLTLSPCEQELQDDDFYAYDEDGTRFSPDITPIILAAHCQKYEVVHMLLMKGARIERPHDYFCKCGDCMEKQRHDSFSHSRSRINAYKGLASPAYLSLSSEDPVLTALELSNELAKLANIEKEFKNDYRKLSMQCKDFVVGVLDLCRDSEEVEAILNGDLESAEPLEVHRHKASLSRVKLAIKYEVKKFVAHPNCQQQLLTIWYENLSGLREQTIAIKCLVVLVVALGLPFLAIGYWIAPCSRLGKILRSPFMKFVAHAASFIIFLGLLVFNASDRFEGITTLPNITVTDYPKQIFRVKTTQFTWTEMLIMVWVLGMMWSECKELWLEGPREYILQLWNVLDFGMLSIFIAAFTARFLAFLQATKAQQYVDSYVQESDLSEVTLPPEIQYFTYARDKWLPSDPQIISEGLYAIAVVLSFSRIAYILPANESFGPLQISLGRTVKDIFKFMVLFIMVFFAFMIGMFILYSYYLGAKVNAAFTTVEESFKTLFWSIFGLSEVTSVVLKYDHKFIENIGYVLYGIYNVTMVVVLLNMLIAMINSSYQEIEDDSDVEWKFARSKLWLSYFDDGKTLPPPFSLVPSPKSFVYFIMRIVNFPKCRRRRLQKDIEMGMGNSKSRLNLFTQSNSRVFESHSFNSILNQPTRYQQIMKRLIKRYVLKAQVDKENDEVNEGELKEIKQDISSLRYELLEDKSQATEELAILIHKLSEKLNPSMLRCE
Briefly: Inhibition of human TRPC3 channel expressed in HEK293 cells assessed as inhibition of OAG-evoked Ca2+ entry by measuring reduction in intracellular Ca2+ level by Fluo-4 dye based FLIPR assay. Format: cell-based.

The source made the active and inactive calls. The rule behind the calls is not given here.

`O=C1NC(=O)C(N2CCc3c(nc(C4CC4)nc3Oc3ccc(F)cc3C(F)(F)F)C2)=C1Cl`: the IC50 (as a rule, the concentration needed to halve the response being measured) in series [1] came out at 2080 nM.

On to `O=C1NC(=O)C(N2CCc3c(ncnc3Oc3ccc(F)cc3C3CCC3)C2)=C1Cl`, for which the IC50 in series [1] was above 10000 nM.

With `O=C1CN(c2cn[nH]c(=O)c2Cl)CN1Cc1ccccc1C(F)(F)F`, the IC50 in series [1] was above 10000 nM.

Regarding `O=C1NC(=O)C(N2CCc3c(ncnc3Oc3ccc(F)cc3CC(F)(F)F)C2)=C1Cl`, in series [1], the IC50 amounted to 2540 nM.

Turning to `O=C1NC(=O)C(N2CCc3c(ncnc3Oc3ccccc3Cl)C2)=C1Cl`, the IC50 in series [1] is 654 nM.

`O=C1NC(=O)C(N2CCc3c(ncnc3Oc3ccc(F)cc3C3CC3)C2)=C1Cl`: the IC50 in series [1] stood at 111 nM.

With `O=C1NC(=O)C(N2CCc3c(cnn3Cc3ccccc3C(F)(F)F)C2)=C1Cl`, the IC50 in series [1] was 955 nM.

Consider `C#Cc1cc(F)ccc1Oc1ncnc2c1CCN(C1=C(Cl)C(=O)NC1=O)C2`, for which the IC50 in series [1] turned out to be 629 nM.

For `CCc1ccccc1Oc1ncnc2c1CCN(C1=C(Cl)C(=O)NC1=O)C2`, the IC50 in series [1] came to 1070 nM.

Regarding `O=C1NC(=O)C(N2CCc3c(ncnc3Oc3ccccc3C(F)(F)F)C2)=C1Cl`, in series [1], the IC50 was 452 nM.

As to `O=C1CN(c2cn[nH]c(=O)c2Cl)CCN1Cc1ccccc1C(F)(F)F`, the values for the Activity result (in the series on MPC-5; with Hepatocyte; in series [3]) were “Dde”, “Non-Toxic” and “Non-Toxic”, respectively. The figures for the IC50 in series [2] and in series [1] were 50.1 nM and 211 nM, respectively.

In the case of `O=C1CN(c2cc(=O)[nH]c(=O)[nH]2)CCN1Cc1ccccc1C(F)(F)F`, the IC50 in series [1] was above 10000 nM.

For `O=C(NCc1ccccc1C(F)(F)F)C1CN(c2cn[nH]c(=O)c2Cl)C1`, the IC50 in series [1] is above 10000 nM.

Regarding `O=C1CN(c2cn[nH]c(=O)c2)CCN1Cc1ccccc1C(F)(F)F`, the IC50 in series [1] is above 10000 nM.

On to `O=C1NC(=O)C(N2CCc3ncn(Cc4ccccc4C(F)(F)F)c3C2)=C1Cl`, for which, in series [1], the IC50 turned out to be 860 nM.

As for `O=C(CC1CN(c2cn[nH]c(=O)c2Cl)C1)NCc1ccccc1C(F)(F)F`, the IC50 in series [1] was above 10000 nM.

As for `O=C1NC(=O)C(N2CCc3c(ncnc3Oc3ccc(Cl)cc3C(F)(F)F)C2)=C1Cl`, the IC50 in series [1] was determined as 314 nM.

Take `O=C1NC(=O)C(N2CCc3c(ncnc3Oc3cccc(C(F)(F)F)c3)C2)=C1Cl`: the IC50 in series [1] was above 10000 nM.

Consider `O=C1NC(=O)C(N2CCN(Cc3ccccc3C(F)(F)F)C(=O)C2)=C1Cl`, for which, in series [1], the IC50 was 10400 nM.

In the case of `O=C1NC(=O)C(N2CCc3c(ncnc3Oc3c(F)cccc3C(F)(F)F)C2)=C1Cl`, the IC50 in series [1] came to 776 nM.

As to `O=C1NC(=O)C(N2CCc3c(ncnc3Oc3ccc(F)cc3C3CCCC3)C2)=C1Cl`, the IC50 in series [1] is above 10000 nM.

Take `CN(Cc1ccccc1C(F)(F)F)C(=O)C1CN(c2cn[nH]c(=O)c2Cl)C1`: the IC50 in series [1] is above 10000 nM.

For the compound `Cc1cc(F)ccc1Oc1ncnc2c1CCN(C1=C(Cl)C(=O)NC1=O)C2`, the IC50 in series [1] is above 10000 nM.

Consider `Cn1c(N2CCN(Cc3ccccc3C(F)(F)F)C(=O)C2)cc(=O)[nH]c1=O`, for which the IC50 in series [1] was above 10000 nM.

Consider `O=C1NC(=O)C(N2CCc3c(ncnc3Oc3ccc(F)cc3C(F)(F)F)C2)=C1Cl`, for which the Activity result in the series with MPC-5 is “Dde”; in the series on Hepatocyte it was “Non-Toxic”; in series [3] it was “Non-Toxic”. For the same compound, the inhibition entry in series [4] is “Dde”. Also, the figures for the IC50 in series [5], in series [2] and in series [1] were 65 nM, 14.1 nM and 60 nM, respectively. The inhibition result in series [6] was “Active”.

In the case of `Cn1ncc(N2CCN(Cc3ccccc3C(F)(F)F)C(=O)C2)c(Cl)c1=O`, the IC50 in series [1] is above 10000 nM.

Regarding `O=C1CN(c2cc(=O)[nH]cn2)CCN1Cc1ccccc1C(F)(F)F`, the IC50 in series [1] was above 10000 nM.

Consider `CCc1nc2c(c(Oc3ccc(F)cc3C(F)(F)F)n1)CCN(C1=C(Cl)C(=O)NC1=O)C2`, for which, in series [1], the IC50 turned out to be 798 nM.

For the compound `Cc1nc2c(c(Oc3ccc(F)cc3C(F)(F)F)n1)CCN(C1=C(Cl)C(=O)NC1=O)C2`, the IC50 in series [1] is 125 nM.

On to `CN(CC(=O)NCc1ccccc1C(F)(F)F)c1cn[nH]c(=O)c1Cl`, for which the IC50 in series [1] was above 10000 nM.

`N#Cc1cc(F)ccc1Oc1ncnc2c1CCN(C1=C(Cl)C(=O)NC1=O)C2`: the IC50 in series [1] stood at 664 nM.

As to `Cn1c(N2CCN(Cc3ccccc3C(F)(F)F)C(=O)C2)cc(=O)n(C)c1=O`, in series [1], the IC50 was above 10000 nM.

Consider `O=C1NC(=O)C(N2CCc3c(ncnc3Oc3ccc(F)cc3Cl)C2)=C1Cl`, for which the IC50 in series [1] turned out to be 280 nM.

With `O=C1NC(=O)C(N2CCc3c(ncnc3Oc3ccc(C(F)(F)F)cc3)C2)=C1Cl`, the IC50 in series [1] was above 10000 nM.

The values are drawn from ChEMBL document CHEMBL5143583, “Discovery of pyrroledione analogs as potent transient receptor potential canonical channel 5 inhibitors” (Bioorg Med Chem Lett, 2022).
